Source: ChEMBL document CHEMBL1201862, “PubChem BioAssay data set” (2004)
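Results reflect a 48-hour exposure of cells in 96-well plates to compound at five concentrations. At the GI50, growth is halved.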 The source made the active and inactive calls. Rule as the data show it: active = GI50 up to about 1.1 µM and inactive = higher.

Experiments:
Test in all cases: NCI anticancer screen, dose series, 48 h
DLD-1 = tested on: DLD-1
DMS-114 = tested on: DMS-114
DMS-273 = tested on: DMS-273
HOP-18 = tested on: HOP-18
KM-20L2 = tested on: KM-20L2
LXFL 529 = tested on: LXFL 529
M19-MEL = tested on: M19-MEL
RXF 631 = tested on: RXF 631
XF498 = tested on: XF498

Compound | GI50 (DLD-1) | GI50 (DMS-114) | GI50 (DMS-273) | GI50 (HOP-18) | GI50 (KM-20L2) | GI50 (LXFL 529) | GI50 (M19-MEL) | GI50 (RXF 631) | GI50 (XF498)
COC(OC)c1cccc2c1C(=O)CCC1(CC2)OCCCCO1 | > 100 µM (inactive) | > 100 µM (inactive) | > 100 µM (inactive) | > 100 µM (inactive) | > 100 µM (inactive) | > 100 µM (inactive) | > 100 µM (inactive) | – | –
O=C1NC(=O)C2C(=O)NC(=O)C1C2c1c(Cl)cccc1Cl (configuration not stated) | > 43.3 µM (inactive) | > 38.4 µM (inactive) | > 42.7 µM (inactive) | > 100 µM (inactive) | > 49.5 µM (inactive) | > 100 µM (inactive) | – | > 100 µM (inactive) | > 100 µM (inactive)
COC1(OC)CC2C(=O)N(Cc3ccccc3)C1C(S(=O)(=O)c1ccccc1)C2S(=O)(=O)c1ccccc1 (configuration not stated) | 3.52 µM (inactive) | 3.7 µM (inactive) | 14.6 µM (inactive) | 17.2 µM (inactive) | 17.4 µM (inactive) | 3.48 µM (inactive) | 11.1 µM (inactive) | 16.7 µM (inactive) | –
Cc1cccc(N2C(=O)C(=O)C(c3nc4ccccc4s3)C(=O)C2=O)c1C | > 100 µM (inactive) | > 100 µM (inactive) | > 100 µM (inactive) | > 100 µM (inactive) | > 100 µM (inactive) | > 100 µM (inactive) | > 100 µM (inactive) | > 100 µM (inactive) | –
CC1(C)CC(c2c[nH]c3ccccc23)=CC2=Nc3ccccc3C21O (configuration not stated) | > 100 µM (inactive) | > 100 µM (inactive) | > 100 µM (inactive) | – | > 100 µM (inactive) | 47.4 µM (inactive) | > 100 µM (inactive) | – | 29.2 µM (inactive)
O=C(Nc1ccccc1)Oc1ccccc1C1CCCCC1 | 13.9 µM (inactive) | 12 µM (inactive) | 15.2 µM (inactive) | 29.3 µM (inactive) | – | 22.5 µM (inactive) | 16 µM (inactive) | – | 19 µM (inactive)
Cc1c(C(=O)C/C(=N/NC(=O)c2ccccc2O)C(=O)Nc2ccccc2C(C)C)[n+]([O-])c2ccccc2[n+]1[O-] | 31.8 µM (inactive) | 23.1 µM (inactive) | 31.8 µM (inactive) | > 100 µM (inactive) | 39.7 µM (inactive) | 25.1 µM (inactive) | 46.5 µM (inactive) | – | > 100 µM (inactive)
COc1cc([C@@H]2c3cc4c(cc3[C@@H](NC(=O)c3ccc(OC(C)=O)cc3)C3COC(=O)[C@@H]32)OCO4)cc(OC)c1O (some centres not stated) | 2.96 µM (inactive) | 1.2 µM (inactive) | 0.359 µM (active) | > 100 µM (inactive) | 2.13 µM (inactive) | 9.62 µM (inactive) | 8.71 µM (inactive) | 1.76 µM (inactive) | 0.813 µM (active)
CN(C)CC1CCCC/C1=N\OC(=O)c1ccccc1 (configuration not stated) | > 100 µM (inactive) | > 100 µM (inactive) | > 100 µM (inactive) | > 100 µM (inactive) | > 100 µM (inactive) | > 100 µM (inactive) | > 100 µM (inactive) | > 100 µM (inactive) | > 100 µM (inactive)
N#Cc1ccc(Oc2cccc(Oc3ccccc3)c2)cc1C#N | > 10 µM (inactive) | 31.9 µM (inactive) | – | > 10 µM (inactive) | > 10 µM (inactive) | 61 µM (inactive) | > 10 µM (inactive) | 79.6 µM (inactive) | > 10 µM (inactive)
CCC1CNC(=O)CC1CC(=O)OC (configuration not stated) | – | > 100 µM (inactive) | – | – | > 100 µM (inactive) | – | – | – | –
Cc1c(/C=C2\CC/C(=C\c3[nH]c(C(=O)OC(C)(C)C)c(C)c3C)C2=O)[nH]c(C(=O)OC(C)(C)C)c1C | > 100 µM (inactive) | > 100 µM (inactive) | > 100 µM (inactive) | > 100 µM (inactive) | > 100 µM (inactive) | > 100 µM (inactive) | > 100 µM (inactive) | – | > 100 µM (inactive)
COc1cc2cc3c4cc(OC)c(OC)cc4cc[n+]3c(C)c2cc1OC.O=C([O-])CS(=O)(=O)O | > 100 µM (inactive) | 3.34 µM (inactive) | 63.8 µM (inactive) | > 100 µM (inactive) | > 100 µM (inactive) | 10.8 µM (inactive) | 69 µM (inactive) | – | 36.4 µM (inactive)
